Test results taken from US20210255184A1, “Biosensor Device and Methods” (The New Zealand Institute for Plant and Food Research …, priority 2018, published 2021).

Target: T1, Or22a/Orco (Drosophila melanogaster, UniProt P81909)
T1 construct: his-tag; made in house; host or cells: baculovirus-infected Sf9 cells
T1 sequence (P81909 1-397): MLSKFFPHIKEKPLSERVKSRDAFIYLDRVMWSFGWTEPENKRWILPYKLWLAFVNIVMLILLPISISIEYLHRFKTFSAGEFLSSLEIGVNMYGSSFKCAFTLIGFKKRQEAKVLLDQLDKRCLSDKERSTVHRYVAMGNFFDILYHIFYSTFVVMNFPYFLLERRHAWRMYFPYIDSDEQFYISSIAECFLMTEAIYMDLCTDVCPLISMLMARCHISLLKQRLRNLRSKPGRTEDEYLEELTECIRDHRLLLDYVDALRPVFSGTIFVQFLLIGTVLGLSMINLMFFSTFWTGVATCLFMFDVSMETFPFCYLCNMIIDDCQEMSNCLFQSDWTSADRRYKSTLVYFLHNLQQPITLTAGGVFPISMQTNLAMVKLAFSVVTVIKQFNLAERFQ
T1 sequence (Q9VNB5 1-486 partner): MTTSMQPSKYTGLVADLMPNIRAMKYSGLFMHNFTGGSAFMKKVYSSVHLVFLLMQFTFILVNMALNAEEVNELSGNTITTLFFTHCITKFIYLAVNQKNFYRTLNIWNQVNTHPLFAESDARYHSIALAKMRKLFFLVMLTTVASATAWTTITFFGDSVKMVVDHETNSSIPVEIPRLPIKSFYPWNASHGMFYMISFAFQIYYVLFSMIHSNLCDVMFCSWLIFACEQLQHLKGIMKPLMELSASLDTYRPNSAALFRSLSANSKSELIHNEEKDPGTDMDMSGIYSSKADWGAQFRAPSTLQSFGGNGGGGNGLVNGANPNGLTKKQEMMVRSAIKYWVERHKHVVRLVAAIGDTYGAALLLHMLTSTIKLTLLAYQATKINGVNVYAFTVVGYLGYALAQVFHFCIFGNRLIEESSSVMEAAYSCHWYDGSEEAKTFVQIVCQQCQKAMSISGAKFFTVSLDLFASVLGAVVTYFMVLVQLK
Experiment: Droplet interface bilayer ion channel recording, Or22a/Orco
Assay type: biochemical
Conditions: DIB, 10 μM ligand, at +/−100 mV, +/−50 mV and −25 mV
Description: Bilayers were formed between two droplets formed within a PMMA chamber filled with 1 mg/ml DPhPC in undecane and AR20 silicone oil (1:1 ratio). The first step in this process was to deposit a 50 nl droplet onto the stationary silver electrode positioned at the base of the well; this droplet consisted of an aqueous solution containing 300 mM NaCl, 10 mM HEPES (pH 7.4), containing the odorant receptor proteins in proteoliposomes (at a 1:20 dilution from the proteoliposome preparation), […] The second droplet was mounted onto a second silver electrode which was held in the oil and lipid mixture using a YOU-3 manipulator (Narishige, Japan). […] Once the droplets were in contact a bilayer formed spontaneously within 1 minute (as determined by visual assessment and an increase in the bilayer capacitance as measured with a capacitance voltage protocol using the Pico2 amplifier). Insertion of an active channel was determined by a change in current while clamping the voltage at 50 mV. […]
Currents were recorded with a Pico2 or an eONE-HS amplifier (Tecella, USA and Elements, Italy, respectively) with built-in digitizers, operating in gap-free acquisition mode at a sampling frequency of 20 kHz, and using a 0.8 or 1.5 kHz low pass filter. […]
Data were analysed using ANA (Dr Pusch, Genoa), EDR (Elements, Italy) and WinWCP (Dr Dempster, University of Strathclyde). […]

## CCCCCC(=O)OC [methyl hexanoate]
  ion channel activity: ion channel activity is observed
